Holding throughout (format): cell-based, mouse
One series deals with mammary cancer cells. The series can be described thus: Scratch assay. Particulars: 6 h and 24 h. As for the experimental part: Confluent monolayers of cancer cells plated in 12-well plates were scratched using a pipette tip. Fresh medium was added to the wells. Cells were allowed to migrate for 0, 6 or 24 hours before fixation (4% paraformaldehyde (PFA) for 45 minutes). Fixed cells were washed (1×PBS) and imaged with a Nikon Eclipse Ti microscope adjusted with a Nikon digital sight camera (Nikon, Tokyo, Japan). Images were processed and migrated cells counted using Image J software.

In series [1] the test system is 4T1 cells. Description: Anoikis assay (Poly-HEMA). To be noted: 48 hours. As for the experimental part: 96-well plates were coated with 50 ul of sterile 95% Ethanol or 50 ul of 12 mg/ml Poly-HEMA in 95% Ethanol (Sigma-Aldrich) and allowed to dry for 72 hours under the hood as previously described. (See Phung et al. (2011) Rapid generation of in vitro multicellular spheroids for the study of monoclonal antibody therapy. J Cancer 2: 507-514). Poly-HEMA prevents cells from attaching to the plastic. Following, 4T1 shControl, sh413, sh413 WT, or sh413 C3A cells were plated at 20,000 cells/well. Plates were centrifuged at 1,200 g for 10 minutes and then incubated at 37° C. for 48 hours. Cells were collected to test cell viability using trypan blue (Life technologies) and an MTT assay (Life technologies). The rest of the cells were pelleted and kept at −20° C. until used for RNA and protein isolation.

The subject of another series is E0771 cells. The series can be described thus: MTT assay, E0771. The method, then: A total of 5,000 cells stably expressing sh137, sh413, or shControl were plated in 96-well plates. Cells were then incubated with 5 mg/ml MTT reagent for 3.5 hours followed by addition of MTT solvent (0.1% NP-40 and 4 mM HCl in isopropanol) and rocking for 15 minutes. Absorbance at 590 nm was read using a Tecan Infinite M200 Pro plate reader.
Background: Formazan colour is commonly taken as a measure of viable cells.

In another series the test system is E0771 or 4T1 cells. Description: Cell invasion assay (Matrigel). Particulars: 24 h. The method, then: The apical chamber of 24-well cell culture inserts (Merck Millipore) were coated with 3 mg/ml of Matrigel (100 μl) (Sigma-Aldrich) and allowed to solidify for 5 hours. A total of 100,000 sh413- or shControl-transduced E0771 or 4T1 cells in serum-free medium were plated on top of the Matrigel layer. Culture medium containing 10% FBS and 5 μg/ml fibronectin (adhesive substrate) (Sigma-Aldrich) was added to the basal chamber of the unit (600 μl) and cells were allowed to invade through the membranous barrier for 24 hours at 37° C. Noninvasive cells were washed off; invasive cells were fixed with 4% PFA, permeabilized with 100% methanol, labeled with Giemsa stain and imaged as described in the previous paragraph. Images were processed using Image J software. Cells from five different fields were counted and averaged.

The subject of series [2] is 4T1 cells. The series can be described thus: Collagen and fibronectin adhesion assay. Particulars: pre-coated plates, 4 hours. The method, then: Ninety-six-well plates were coated with 50 μg/ml of collagen or fibronectin. Plates were incubated at 37° C. for 2 hours. Nonspecific sites were blocked with 40 μl of 2 mg/ml bovine serum albumin (BSA) in PBS. Wells were washed once with PBS. Cancer cells were labeled with PKH67 Green fluorescent cell linker, following the manufacturer's instructions (Sigma-Aldrich). Labelled cells were added to pre-coated wells (20,000 cells/well) and allowed to adhere for 4 hours. Non-adhered cells were washed off with PBS and plates were read at 485 nm/535 nm (excitation/emission) wavelengths using a Tecan Infinite M200 Pro plate reader (Tecan, Maennedorf, Switzerland). Values are represented as relative fluorescence unit.

In the next series the test system is BST-2. The series can be described thus: shRNA knockdown of BST-2 in E0771 and 4T1 cells. Particulars: E0771 and 4T1 cells stably transduced. The text has this:
E0771 and 4T1 cells were stably transduced with a construct expressing LV-CMV-firefly luciferase or an empty vector construct using lipofectamine following the manufacturer's instructions (Life Technologies, Carlsbad, Calif., USA). Stable transfectants were then transduced with lentiviral particles carrying BST-2-targeting sh137: CCGGC […] (SEQ ID NO:3); sh413: […] TTCTCAAGCTTTTTG (SEQ ID NO:4); or a non-targeting shControl: […] (SEQ ID NO:5) using a previously described protocol. Stable cells were generated by selection with the appropriate drug. The short hairpin RNA (shRNA) constructs were purchased from Sigma-Aldrich (St Louis, Mo., USA) (SHCLND-NM_198095) and lentiviral particles were generated at the Gene Transfer Vector Core at the University of Iowa.
Cell monolayers were washed with PBS and treated with Versene (Life Technologies). […] Stained cells were quantified using a FACSCalibur flow cytometer (BD Biosciences, San Jose, Calif., USA). […] Fluorescence-activated cell sorting (FACS) data were analyzed by Flowjo software (TreeStar, Ashland, Oreg., USA). […]
Western blots were performed as previously described. […] Band detection and quantification were carried out with the Odyssey Infrared Imaging System (LI-COR Biosciences, Lincoln, Nebr., USA).

The results in this text go back to US20180200331A1, “BST-2 AS A THERAPEUTIC TARGET AND DIAGNOSTIC MARKER FOR BREAST CANCER GROWTH AND METASTASIS” (University of Iowa Research Foundation, priority 2015, published 2018).

On to “sh413: BST-2-targeting shRNA (SEQ ID NO:4), delivered by lentiviral particles (CCGGGCTTGAGAATGAAGTCACGAACTCGAGTTCGTGACTTCATTCTCAAGCTTTTTG)”, for which the “migration into scratch wound” value in the series on mammary cancer cells is on record as “lost the ability to migrate”. Further, in the series with 4T1 cells [1], the susceptibility to anoikis result was “renders cells susceptible to anoikis”. The “cell viability (MTT)” value with E0771 cells is “equally viable”. In addition, in the series with E0771 or 4T1 cells, the “invasion through Matrigel” value is reported as “reduced the ability of the cells to invade the basement membrane”. Also, in the series on 4T1 cells [2], the adhesion to collagen result is given as “reduced adhesive capability” and the adhesion to fibronectin result was “reduced adhesive capability”. Also, the BST-2 expression result in the series on BST-2 is listed as “more efficiently suppressed BST-2”.
